Source: patent US20240109853A1 (Shanghai Yao Yuan Biotechnology Co., Ltd., priority 2020, published 2024)
Read-outs that look alike come from different tables or passages of the source.

Target: ALPK1 (Homo sapiens (Human), UniProt Q96QP1)
Test: ALPK1 in vitro kinase assay (HTRF of TIFA phosphorylation)
Assay type: biochemical
Description: In embodiments, a compound of Formula I, or a subembodiment described herein, is an inhibitor of ALPK1 as measured, for example, in an in vitro kinase assay, or an assay designed to measure the activation of downstream targets of ALPK1 pathway activation, for example NFkB transcriptional activation and the secretion of proinflammatory cytokines and chemokines, such as IL-8, which is also referred to as CXCL-8. In general, the computer program XL fit was used for data analysis, including non-linear regression analysis. The half maximal inhibitory concentration (IC50) was used as the measure of a compound's effectiveness in the assays. IC50 values were determined using the following logistic equation Y=min+(max−min)/(1+(X/IC50^−hillslpoe), where Y is the value at the compound concentration, X. The concentration response curve fitting was conducted using GraphPad Prism version 6.00 software.
ALPK1 kinase activity was measured in an in vitro assay using ADP-Heptose as the ALPK1 ligand and activator of its kinase activity and TIFA protein as the ALPK1 phosphorylation substrate. Since phosphorylated TIFA proteins oligomerize, Homogeneous Time-Resolved Fluorescence (HTRF) was used to measure protein:protein interaction between HA-tagged TIFA proteins as an indicator of TIFA phosphorylation.
In brief, dose-response studies were performed with HEK293 cells cultured in Dulbecco's Modified Eagle Medium (DMEM) supplemented 10% fetal bovine serum (FBS, Hyclone™) containing antibiotics (pen/strep, G418) in 384-well assay plates. Each well contained 0.1 mg TIFA, ALPK1 (2 nM final concentration in reaction mixture) and kinase buffer (100 mM of HEPES pH 7.4, 4 mM DTT, 40 mM MgCl2, 20 mM of β-Glycerol phosphate disodium salt, 0.4 mM of Na3VO4, 0.16 mg/mL). Titrations of the test compounds were prepared in dimethylsulphoxide (DMSO). The reaction was initiated by addition of ATP and ADP-Heptose.
For HTRF, samples were incubated with a Tb cryptate-labeled anti-HA antibody for capturing HA-tagged proteins according to the manufacturer's instructions (PerkinElmer™, CisBio™) and the fluorescence signal was quantified (Tecan Infinite F NANO+). HTRF signals were calculated as the HTRF ratio (ratio of fluorescence measured at 665 nm and 620 nm)×104 (thereby using the signal at 620 nm as an internal standard).
IC50 values were determined using 3- or 4-parameter logistic equation using GraphPad Prism version 6.00. The reference compound, A027, was used as a positive control for each plate.

[1] = ALPK1 2 nM, TIFA substrate, ADP-Heptose activator, HTRF readout

Sequence of ALPK1 (Q96QP1 whole entry): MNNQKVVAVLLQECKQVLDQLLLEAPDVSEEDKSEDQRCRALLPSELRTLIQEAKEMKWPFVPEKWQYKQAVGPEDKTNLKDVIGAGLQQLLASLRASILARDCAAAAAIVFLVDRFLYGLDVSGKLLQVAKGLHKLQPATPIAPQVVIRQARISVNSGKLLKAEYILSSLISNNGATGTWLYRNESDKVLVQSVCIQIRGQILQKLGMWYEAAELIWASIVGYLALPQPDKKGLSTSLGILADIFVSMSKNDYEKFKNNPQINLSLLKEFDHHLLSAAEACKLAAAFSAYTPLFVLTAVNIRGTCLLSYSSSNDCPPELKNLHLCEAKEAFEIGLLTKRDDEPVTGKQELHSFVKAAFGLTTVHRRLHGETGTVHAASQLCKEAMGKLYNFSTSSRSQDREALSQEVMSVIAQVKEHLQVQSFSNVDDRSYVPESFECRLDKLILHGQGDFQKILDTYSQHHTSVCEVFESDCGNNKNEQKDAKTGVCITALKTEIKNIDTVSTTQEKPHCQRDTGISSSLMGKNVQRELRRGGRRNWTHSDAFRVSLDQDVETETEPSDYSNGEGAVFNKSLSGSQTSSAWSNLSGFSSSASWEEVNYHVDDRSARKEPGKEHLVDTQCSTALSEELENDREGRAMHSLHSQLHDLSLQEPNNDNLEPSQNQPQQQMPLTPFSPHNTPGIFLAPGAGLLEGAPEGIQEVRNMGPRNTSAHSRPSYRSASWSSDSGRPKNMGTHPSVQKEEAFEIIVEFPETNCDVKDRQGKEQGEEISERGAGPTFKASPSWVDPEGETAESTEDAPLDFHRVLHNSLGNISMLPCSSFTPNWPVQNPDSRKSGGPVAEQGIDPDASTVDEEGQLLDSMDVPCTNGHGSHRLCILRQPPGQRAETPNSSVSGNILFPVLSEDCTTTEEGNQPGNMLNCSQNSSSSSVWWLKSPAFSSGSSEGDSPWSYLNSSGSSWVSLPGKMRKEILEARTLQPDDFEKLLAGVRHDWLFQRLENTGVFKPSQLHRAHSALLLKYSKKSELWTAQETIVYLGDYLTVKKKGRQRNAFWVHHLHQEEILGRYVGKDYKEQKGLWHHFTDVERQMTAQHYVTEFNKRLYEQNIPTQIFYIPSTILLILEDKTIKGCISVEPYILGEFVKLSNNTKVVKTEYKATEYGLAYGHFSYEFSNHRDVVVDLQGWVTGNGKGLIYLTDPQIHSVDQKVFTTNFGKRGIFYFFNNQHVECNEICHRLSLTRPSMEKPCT

SMILES: CCOCC(C)(c1ccccc1)c1csc(NC(=O)c2c(F)cc(N3CCNCC3)cc2F)n1 (stereo not drawn) [Example C012, N-(4-(1-ethoxy-2-phenylpropan-2-yl)thiazol-2-yl)-2,6-difluoro-4-(piperazin-1-yl)benzamide]
- IC50 [1]: 78 nM

SMILES: C#C[C@@](C)(c1csc(NC(=O)c2c(F)cc(N3CCNCC3)cc2F)n1)c1ccc(Cl)cc1F (stereo in doubt) [Example C043, N-(4-(2-(4-chloro-2-fluorophenyl)but-3-yn-2-yl)thiazol-2-yl)-2,6-difluoro-4-(piperazin-1-yl)benzamide]
- IC50 [1]: 285 nM

SMILES: CC(C)(c1ccc(Br)cc1)c1csc(NC(=O)c2ccc(N3CCN(CCO)CC3)nc2)n1 [Example B054, N-(4-(2-(4-bromophenyl)propan-2-yl)thiazol-2-yl)-6-(4-(2-hydroxyethyl)piperazin-1-yl)nicotinamide]
- IC50 [1]: 269 nM

SMILES: C#C[C@](C)(c1ccc(F)cc1)c1csc(NC(=O)c2c(F)cc(N3CCC(N)C3)cc2F)n1 (stereo in doubt) [Example B089, 4-(3-aminopyrrolidin-1-yl)-2,6-difluoro-N-(4-(2-(4-fluorophenyl)but-3-yn-2-yl)thiazol-2-yl)benzamide]
- IC50 [1]: 681 nM

SMILES: C#CC(C)(c1ccc(F)cc1)c1csc(NC(=O)c2ccc(N3CCNCC3)c(C(N)=O)c2)n1 (stereo not drawn) [Example B081, N1-(4-(2-(4-fluorophenyl)but-3-yn-2-yl)thiazol-2-yl)-4-(piperazin-1-yl)isophthalamide]
- IC50 [1]: 102 nM

SMILES: C#CC(C)(c1ccc(Cl)cc1)c1csc(NC(C)=O)n1 (stereo not drawn) [Example D004, N-(4-(2-(4-chlorophenyl)but-3-yn-2-yl)thiazol-2-yl)acetamide]
- IC50 [1]: 18 nM

SMILES: COc1ccc(C(C)(C)c2csc(NC(=O)c3cccc(N4CCN(CCO)CC4)c3)n2)cc1 [Example B007, 3-(4-(2-hydroxyethyl)piperazin-1-yl)-N-(4-(2-(4-methoxyphenyl)propan-2-yl)thiazol-2-yl)benzamide]
- IC50 [1]: 230 nM

SMILES: C#CC(C)(c1ccc(F)cc1)c1csc(NC(=O)c2c(F)cc(N3CCNC(CO)C3)cc2F)n1 (stereo not drawn) [Example B082, 2,6-difluoro-N-(4-(2-(4-fluorophenyl)but-3-yn-2-yl)thiazol-2-yl)-4-(3-(hydroxymethyl)piperazin-1-yl)benzamide]
- IC50 [1]: 25 nM

SMILES: C#C[C@@](C)(c1ccc(Cl)cc1)c1nc(NC(=O)c2c(F)cc(N3CCNCC3)cc2F)sc1Cl [Example C020, (S)-N-(5-chloro-4-(2-(4-chlorophenyl)but-3-yn-2-yl)thiazol-2-yl)-2,6-difluoro-4-(piperazin-1-yl)benzamide]
- IC50 [1]: 88 nM

SMILES: C#C[C@](C)(c1ccc(F)cc1)c1csc(NC(=O)c2ccc(N3CCNCC3CO)cc2)n1 (stereo in doubt) [Example B070, N-[4-[1-(4-fluorophenyl)-1-methyl-prop-2-ynyl]thiazol-2-yl]-4-[2-(hydroxymethyl)piperazin-1-yl]benzamide]
- IC50 [1]: 169 nM

SMILES: COc1ccc(C(C)(C)c2csc(NC(=O)NCc3cnc(N4CCNCC4)c(C(N)=O)c3)n2)cc1 [Example A209, 5-((3-(4-(2-(4-methoxyphenyl)propan-2-yl)thiazol-2-yl)ureido)methyl)-2-(piperazin-1-yl)nicotinamide]
- IC50: 43 nM

SMILES: COc1ccc(C(C)(C)c2csc(NC(=O)c3ccc(NC4CCN(C)CC4)cc3)n2)cc1 [Example B028, N-(4-(2-(4-methoxyphenyl)propan-2-yl)thiazol-2-yl)-4-((1-methylpiperidin-4-yl)amino)benzamide]
- IC50 [1]: 271 nM

SMILES: C#CC(C)(c1ccc(OC)cc1)c1csc(NC(=O)c2c(F)cc(N3CCNC(CO)C3)cc2F)n1 (stereo not drawn) [Example B084, 2,6-difluoro-4-(3-(hydroxymethyl)piperazin-1-yl)-N-(4-(2-(4-methoxyphenyl)but-3-yn-2-yl)thiazol-2-yl)benzamide]
- IC50 [1]: 28 nM

SMILES: COc1ccc(C(C)(C)c2csc(NC(=O)NCc3ccc(N4CCNCC4)c(C(=O)N(C)C)c3)n2)cc1 [Example A185, 5-((3-(4-(2-(4-methoxyphenyl)propan-2-yl)thiazol-2-yl)ureido)methyl)-N,N-dimethyl-2-(piperazin-1-yl)benzamide]
- IC50: 56 nM

SMILES: C#CC(C)(c1ccc(Cl)cc1)c1csc(NC(=O)c2ccc(N3CCNCC3)cc2)n1 (stereo not drawn) [Example B062, N-(4-(2-(4-chlorophenyl)but-3-yn-2-yl)thiazol-2-yl)-4-(piperazin-1-yl)benzamide]
- IC50 [1]: 12 nM

SMILES: CC(c1ccc(Cl)cc1)c1csc(NC(=O)c2c(F)cc(N3CCNCC3)cc2F)n1 (stereo not drawn) [Example C003, N-(4-(1-(4-chlorophenyl)ethyl)thiazol-2-yl)-2,6-difluoro-4-(piperazin-1-yl)benzamide]
- IC50 [1]: 11 nM

SMILES: C#C[C@](C)(c1ccc(Cl)cc1)c1csc(NC(=O)c2c(F)cc(N3CCN(CCO)CC3)cc2F)n1 [Example C022, (R)-N-(4-(2-(4-chlorophenyl)but-3-yn-2-yl)thiazol-2-yl)-2,6-difluoro-4-(4-(2-hydroxyethyl)piperazin-1-yl)benzamide]
- IC50 [1]: 188 nM

SMILES: C#C[C@@](C)(c1ccc(F)cc1)c1csc(NC(=O)c2ccc(N3CCNCC3CO)cc2)n1 (stereo in doubt) [Example B069, N-[4-[1-(4-fluorophenyl)-1-methyl-prop-2-ynyl]thiazol-2-yl]-4-[2-(hydroxymethyl)piperazin-1-yl]benzamide]
- IC50 [1]: 20 nM

SMILES: C#CC(CC)(c1ccc(Cl)cc1)c1csc(NC(=O)c2c(F)cc(N3CCNCC3)cc2F)n1 (stereo not drawn) [Example C047, N-(4-(3-(4-chlorophenyl)pent-1-yn-3-yl)thiazol-2-yl)-2,6-difluoro-4-(piperazin-1-yl)benzamide]
- IC50 [1]: 131 nM

SMILES: C#CC(C)(c1ccc(Br)cc1)c1csc(NC(=O)[C@H]2C[C@@H](CO)C2)n1 (mixture of isomers) [Example D006, rac-(1s,3s)-N-(4-(2-(4-bromophenyl)but-3-yn-2-yl)thiazol-2-yl)-3-(hydroxymethyl)cyclobutanecarboxamide]
- IC50 [1]: 40 nM

SMILES: COCC(C)(c1ccc(Br)cc1)c1csc(NC(=O)c2c(F)cc(N3CCNCC3)cc2F)n1 (stereo not drawn) [Example C014, N-(4-(2-(4-bromophenyl)-1-methoxypropan-2-yl)thiazol-2-yl)-2,6-difluoro-4-(piperazin-1-yl)benzamide]
- IC50 [1]: 13 nM

SMILES: CC(C)(c1ccc(Br)cc1)c1csc(NC(=O)c2ccc(CN3CCN(CCO)CC3)nc2)n1 [Example B051, N-(4-(2-(4-bromophenyl)propan-2-yl)thiazol-2-yl)-6-((4-(2-hydroxyethyl)piperazin-1-yl)methyl)nicotinamide]
- IC50 [1]: 61 nM

SMILES: COc1ccc(C(C)(C)c2csc(NC(=O)NCCCC(=O)NC3CCNCC3)n2)cc1 [Example A071, 4-(3-(4-(2-(4-methoxyphenyl)propan-2-yl)thiazol-2-yl)ureido)-N-(piperidin-4-yl)butanamide]
- IC50: 64 nM

SMILES: C#C[C@@](C)(c1ccc(Cl)cc1)c1csc(NC(=O)c2c(F)cc(N3CCC(N)C3)cc2F)n1 (stereo in doubt) [Example B087, 4-(3-aminopyrrolidin-1-yl)-N-(4-(2-(4-chlorophenyl)but-3-yn-2-yl)thiazol-2-yl)-2,6-difluorobenzamide]
- IC50 [1]: 38 nM

SMILES: Cc1ccc(C(C)(C)c2csc(NC(=O)c3ccc(CN4CCN(C)CC4)cc3)n2)cc1 [Example B046, 4-((4-methylpiperazin-1-yl)methyl)-N-(4-(2-(p-tolyl)propan-2-yl)thiazol-2-yl)benzamide]
- IC50 [1]: 28 nM

SMILES: COc1ccc(C(C)(C)c2csc(NC(=O)c3cnc(N4CCNCC4)nc3)n2)cc1 [Example B015, N-(4-(2-(4-methoxyphenyl)propan-2-yl)thiazol-2-yl)-2-(piperazin-1-yl)pyrimidine-5-carboxamide]
- IC50 [1]: 161 nM

SMILES: C#CC(C)(c1csc(NC(C)=O)n1)c1ccc(Br)cc1F (stereo not drawn) [Example D003, N-(4-(2-(4-bromo-2-fluorophenyl)but-3-yn-2-yl)thiazol-2-yl)acetamide]
- IC50 [1]: 183 nM

SMILES: C#C[C@](C)(c1ccc(OC)cc1)c1csc(NC(=O)N2CC(CO)C2)n1 [Example A255, (R)-3-(hydroxymethyl)-N-(4-(2-(4-methoxyphenyl)but-3-yn-2-yl)thiazol-2-yl)azetidine-1-carboxamide]
- IC50: 688 nM

SMILES: C#CC(C)(c1ccc(Br)cc1)c1csc(NC(=O)C2CC(O)C2)n1 (stereo not drawn) [Example D007, N-(4-(2-(4-bromophenyl)but-3-yn-2-yl)thiazol-2-yl)-3-hydroxycyclobutanecarboxamide]
- IC50 [1]: 55 nM

SMILES: COc1ccc(C(C)(C)c2csc(NC(=O)c3cccc(CN4CCNCC4)c3)n2)cc1 [Example B005, N-(4-(2-(4-methoxyphenyl)propan-2-yl)thiazol-2-yl)-3-(piperazin-1-ylmethyl)benzamide]
- IC50 [1]: 215 nM
